According to patent US7772180B2, “Hepatitis C virus inhibitors” (Bristol-Myers Squibb Company, priority 2006, dated 2010):
pEC50, pIC50: −log10 of the molar value. Like-named read-outs stand apart in the source and are kept apart here.

Assays:
[1] = molecular target: T1, HCV NS3/4A protease complex, BMS strain (UniProt P27958, species not given/STRAIN_BMS); assay: FRET peptide assay to monitor HCV NS3/4A proteolytic activity (BMS strain); assay type: biochemical, Hepatitis C virus (genotype 1a); settings: read-out: HCV Protease (IC50); NS3/4A BMS strain; activity range class
T1 construct: other: NS3/4A BMS strain; activity range class; numeric values, unit not given; said of H77 and J4L6S; fused on or other part: A three-lysine solubilising tail at the C-terminus of NS4A; A His tag is implied by the pET21b vector and Ni-NTA purification; Both are printed for the H77 and J4L6S constructs and apply to BMS by inference
Excerpt: HCV NS3 protease complexes, derived from the BMS strain, H77 strain or J4L6S strain, were generated, as described below. These purified recombinant proteins were generated for use in a homogeneous assay (see below) to provide an indication of how effective compounds of the present disclosure would be in inhibiting HCV NS3 proteolytic activity.
Serum from an HCV-infected patient was obtained from Dr. T. Wright, San Francisco Hospital. An engineered full-length cDNA (compliment deoxyribonucleic acid) template of the HCV genome (BMS strain) was constructed from DNA fragments obtained by reverse transcription-PCR (RT-PCR) of serum RNA (ribonucleic acid) and using primers selected on the basis of homology between other genotype 1a strains. From the determination of the entire genome sequence, a genotype 1a was assigned to the HCV isolate according to the classification of Simmonds et al. (See P Simmonds, K A Rose, S Graham, S W Chan, F McOmish, B C Dow, E A Follett, P L Yap and H Marsden, J. Clin. Microbiol., 31(6), 1493-1503 (1993)). […] The infectious clones, H77 (1a genotype) and J4L6S (1b genotype) were obtained from R. Purcell (NIH) and the sequences are published in Genbank (AAB67036, see Yanagi, M., Purcell, R. H., Emerson, S. U. and Bukh, J. Proc. Natl. Acad. Sci. U.S.A. 94(16), 8738-8743 (1997); AF054247, see Yanagi, M., St Claire, M., Shapiro, M., Emerson, S. U., Purcell, R. H. and Bukh, J. Virology 244 (1), 161-172. (1998)).
NS3/4A protease complex-containing fractions were pooled and loaded on a desalting column Superdex-S200 pre-equilibrated with buffer D (25 mM HEPES, pH 7.5, 20% glycerol, 300 mM NaCl, 0.2% Triton X-100, 10 mM βME). Sample was loaded at a flow rate of 1 mL/min. NS3/4A protease complex-containing fractions were pooled and concentrated to approximately 0.5 mg/ml. The purity of the NS3/4A protease complexes, derived from the BMS, H77 and J4L6S strains, were judged to be greater than 90% by SDS-PAGE and mass spectrometry analyses. The enzyme was stored at −80° C., thawed on ice and diluted prior to use in assay buffer.
The purpose of this in vitro assay was to measure the inhibition of HCV NS3 protease complexes, derived from the BMS strain, H77 strain or J4L6S strain, as described above, by compounds of the present disclosure. This assay provides an indication of how effective compounds of the present disclosure would be in inhibiting HCV NS3 proteolytic activity.
In order to monitor HCV NS3/4A protease activity, an NS3/4A peptide substrate was used. The substrate was RET S1 (Resonance Energy Transfer Depsipeptide Substrate; AnaSpec, Inc. cat #22991) (FRET peptide), described by Taliani et al. in Anal. Biochem. 240(2):60-67 (1996). The sequence of this peptide is loosely based on the NS4A/NS4B natural cleavage site for the HCV NS3 protease except there is an ester linkage rather than an amide bond at the cleavage site. The peptide also contains a fluorescence donor, EDANS, near one end of the peptide and an acceptor, DABCYL, near the other end. The fluorescence of the peptide is quenched by […] resonance energy transfer (RET) between the donor and the acceptor, but as the NS3 protease cleaves the peptide the products are released from RET quenching and the fluorescence of the donor becomes apparent.
The peptide substrate was incubated with one of the three recombinant NS3/4A protease complexes, in the absence or presence of a compound of the present disclosure. The inhibitory effects of a compound were determined by monitoring the formation of fluorescent reaction product in real time using a Cytofluor Series 4000.
Assay buffer: 50 mM HEPES, pH 7.5; 0.15 M NaCl; 0.1% Triton; 15% Glycerol; 10 mM βME. Substrate: 2 μM final concentration (from a 2 mM stock solution in DMSO stored at −20° C.). HCV NS3/4A protease type 1a (1b), 2-3 nM final concentration (from a 5 μM stock solution in 25 mM HEPES, pH 7.5, 20% glycerol, 300 mM NaCl, 0.2% Triton-X100, 10 mM βME). […]

[2] = system: HCV replicon (strain 1b) in HUH-7 cells; assay: HCV replicon FRET assay; assay type: cell-based, Hepatitis C virus; settings: activity range class
Excerpt: An HCV replicon whole cell system was established as described by Lohmann V, Korner F, Koch J, Herian U, Theilmann L, Bartenschlager R., Science 285(5424): 110-3 (1999). This system enabled us to evaluate the effects of our HCV Protease compounds on HCV RNA replication. Briefly, using the HCV strain 1b sequence described in the Lohmann paper (Assession number: AJ238799), an HCV cDNA was synthesized by Operon Technologies, Inc. (Alameda, Calif.), and the full-length replicon was then assembled in plasmid pGem9zf(+) (Promega, Madison, Wis.) using standard molecular biology techniques. The replicon consists of (i) the HCV 5′ UTR fused to the first 12 amino acids of the capsid protein, (ii) the neomycin phosphotransferase gene (neo), (iii) the IRES from encephalomyocarditis virus (EMCV), and (iv) HCV NS3 to NS5B genes and the HCV 3′ UTR. Plasmid DNAs were linearized with ScaI and RNA transcripts were synthesized in vitro using the T7 MegaScript transcription kit (Ambion, Austin, Tex.) according to manufacturer's directions. In vitro transcripts of the cDNA were transfected into the human hepatoma cell line, HUH-7. […] Resulting cell lines were characterized for positive and negative strand RNA production and protein production over time.
The HCV replicon FRET assay was developed to monitor the inhibitory effects of compounds described in the disclosure on HCV viral replication. HUH-7 cells, constitutively expressing the HCV replicon, were grown in Dulbecco's Modified Eagle Media (DMEM) (Gibco-BRL) containing 10% Fetal calf serum (FCS) (Sigma) and 1 mg/ml G418 (Gibco-BRL). Cells were seeded the night before (1.5×10^4 cells/well) in 96-well tissue-culture sterile plates. Compound and no compound controls were prepared in DMEM containing 4% FCS, 1:100 Penicillin/Streptomysin (Gibco-BRL), 1:100 L-glutamine and 5% DMSO in the dilution plate (0.5% DMSO final concentration in the assay). Compound/DMSO mixes were added to the cells and incubated for 4 days at 37° C. After 4 days, cells were first assessed for cytotoxicity using alamar Blue (Trek Diagnotstic Systems) for a CC50 reading. The toxicity of compound (CC50) was determined by adding 1/10th volume of alamarBlue to the media incubating the cells. After 4 hours, the fluorescence signal from each well was read, with an excitation wavelength at 530 nm and an emission wavelength of 580 nm, using the Cytofluor Series 4000 (Perspective Biosystems). Plates were then rinsed thoroughly with Phosphate-Buffered Saline (PBS) (3 times 150 μl).

[3] = read-out: HCV Pro Replicon (EC50), HCV replicon cell assay
[4] = Hepatitis C virus, Huh-7, read-out: HCV Pro Replicon (EC50), HCV replicon cell assay

T1 sequence (P27958 1027-1657, change not shown, one chain of several): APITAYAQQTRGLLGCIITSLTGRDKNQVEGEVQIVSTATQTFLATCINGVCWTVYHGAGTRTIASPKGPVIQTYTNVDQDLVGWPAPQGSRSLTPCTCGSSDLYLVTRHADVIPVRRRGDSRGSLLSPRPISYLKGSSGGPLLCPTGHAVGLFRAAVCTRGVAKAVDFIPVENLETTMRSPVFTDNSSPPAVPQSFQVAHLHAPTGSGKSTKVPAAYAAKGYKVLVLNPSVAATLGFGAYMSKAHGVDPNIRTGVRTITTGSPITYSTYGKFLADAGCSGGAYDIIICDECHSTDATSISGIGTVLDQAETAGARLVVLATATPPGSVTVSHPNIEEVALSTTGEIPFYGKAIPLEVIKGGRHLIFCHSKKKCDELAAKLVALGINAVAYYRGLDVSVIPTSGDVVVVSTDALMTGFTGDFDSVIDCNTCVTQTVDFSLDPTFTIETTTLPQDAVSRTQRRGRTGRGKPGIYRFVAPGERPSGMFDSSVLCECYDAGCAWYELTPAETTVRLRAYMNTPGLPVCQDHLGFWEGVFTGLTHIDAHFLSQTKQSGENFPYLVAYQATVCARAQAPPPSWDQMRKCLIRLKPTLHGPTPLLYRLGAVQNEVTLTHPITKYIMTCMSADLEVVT

| Compound | pIC50 [1] | pEC50 [2, 3] | pEC50 [2, 4] |
| --- | --- | --- | --- |
| C=C[C@@H]1C[C@]1(NC(=O)[C@@H]1C[C@@H](Oc2nc(OC)cc3cc(OC)ccc23)CN1C(=O)C(Nc1ccccc1)C(C)(C)C)C(=O)NS(=O)(=O)C1CC1 (single isomer, unassigned) [20 second isomer] | 6.70 to 7.70 | 6.00 to 7.00 |  |
| C=C[C@@H]1C[C@]1(NC(=O)[C@@H]1C[C@@H](Oc2ncc(OC)c3ccc(Cl)cc23)CN1C(=O)C(Nc1cc(C)cc(C)n1)C(C)(C)C)C(=O)NS(=O)(=O)C1CC1 (single isomer, unassigned) [22 first isomer] | 7.70 to 9.22 | 7.00 to 8.52 |  |
| C=C[C@@H]1C[C@]1(NC(=O)[C@@H]1C[C@@H](Oc2ncc(OC)c3ccc(Cl)cc23)CN1C(=O)C(Nc1cc(C)cc(C)n1)C(C)(C)C)C(=O)NS(=O)(=O)C1CC1 (single isomer, unassigned) [22 second isomer] | 7.70 to 9.22 | 6.00 to 7.00 |  |
| C=C[C@@H]1C[C@]1(NC(=O)[C@@H]1C[C@@H](Oc2ncc(OC)c3ccc(Cl)cc23)CN1C(=O)C(Nc1cncnc1)C(C)C)C(=O)NS(=O)(=O)C1CC1 (single isomer, unassigned) [24 second isomer] | < 6.70 |  | < 6.00 |
| C=C[C@@H]1C[C@]1(NC(=O)[C@@H]1C[C@@H](Oc2ncc(OC)c3ccc(Cl)cc23)CN1C(=O)C(Nc1ccc(C)nc1)C(C)(C)C)C(=O)NS(=O)(=O)C1CC1 (single isomer, unassigned) [26 first isomer] | 7.70 to 9.22 |  | 7.00 to 8.52 |
| C=C[C@@H]1C[C@]1(NC(=O)[C@@H]1C[C@@H](Oc2ncc(OC)c3ccc(Cl)cc23)CN1C(=O)C(Nc1cncc(C(F)(F)F)c1)C(C)(C)C)C(=O)NS(=O)(=O)C1CC1 (single isomer, unassigned) [27 second isomer] | 6.70 to 7.70 |  | 7.00 to 8.52 |
| C=C[C@@H]1C[C@]1(NC(=O)[C@@H]1C[C@@H](Oc2ncc(OC)c3ccc(Cl)cc23)CN1C(=O)C(Nc1cccc(C)n1)C(C)(C)C)C(=O)NS(=O)(=O)C1CC1 (single isomer, unassigned) [28 first isomer] | 7.70 to 9.22 | 7.00 to 8.52 |  |
| C=C[C@@H]1C[C@]1(NC(=O)[C@@H]1C[C@@H](Oc2ncc(OC)c3ccc(Cl)cc23)CN1C(=O)C(Nc1cccc(C)n1)C(C)(C)C)C(=O)NS(=O)(=O)C1CC1 (single isomer, unassigned) [28 second isomer] | 6.70 to 7.70 | 6.00 to 7.00 |  |
| C=C[C@@H]1C[C@]1(NC(=O)[C@@H]1C[C@@H](Oc2nccc3cc(OC)ccc23)CN1C(=O)C(Nc1ccc(OC)nc1)C(C)(C)C)C(=O)NS(=O)(=O)C1CC1 (single isomer, unassigned) [407 first isomer] | 7.70 to 9.22 |  | 6.00 to 7.00 |
| C=C[C@@H]1C[C@]1(NC(=O)[C@@H]1C[C@@H](Oc2nccc3cc(OC)ccc23)CN1C(=O)C(Nc1ccc(OC)nc1)C(C)(C)C)C(=O)NS(=O)(=O)C1CC1 (single isomer, unassigned) [407 second isomer] | 7.70 to 9.22 | 6.00 to 7.00 |  |
| C=C[C@@H]1C[C@]1(NC(=O)[C@@H]1C[C@@H](Oc2ncc(OC)c3ccc(Cl)cc23)CN1C(=O)C(Nc1ccc(OC)nc1)C(C)(C)C)C(=O)NS(=O)(=O)C1CC1 (single isomer, unassigned) [408 first isomer] | 7.70 to 9.22 | 7.00 to 8.52 |  |
| C=C[C@@H]1C[C@]1(NC(=O)[C@@H]1C[C@@H](Oc2ncc(OC)c3ccc(Cl)cc23)CN1C(=O)C(Nc1ccc(OC)nc1)C(C)(C)C)C(=O)NS(=O)(=O)C1CC1 (single isomer, unassigned) [408 second isomer] | < 6.70 | 6.00 to 7.00 |  |
| C=C[C@@H]1C[C@]1(NC(=O)[C@@H]1C[C@@H](Oc2nccc3cc(OC)ccc23)CN1C(=O)C(Nc1ccc(C(F)(F)F)cn1)C(C)C)C(=O)NS(=O)(=O)C1CC1 (single isomer, unassigned) [Compound 2] | 6.70 to 7.70 |  | 6.00 to 7.00 |
| C=C[C@@H]1C[C@]1(NC(=O)[C@@H]1C[C@@H](Oc2nccc3cc(OC)ccc23)CN1C(=O)C(Nc1ccccn1)C(C)C)C(=O)NS(=O)(=O)C1CC1 (single isomer, unassigned) [Compound 7] | 6.70 to 7.70 |  | 7.00 to 8.52 |
| C=C[C@@H]1C[C@]1(NC(=O)[C@@H]1C[C@@H](Oc2nccc3cc(OC)ccc23)CN1C(=O)C(Nc1cc(OC)ccn1)C(C)C)C(=O)NS(=O)(=O)C1CC1 (single isomer, unassigned) [Compound 8] | 6.70 to 7.70 |  | 7.00 to 8.52 |
| C=C[C@@H]1C[C@]1(NC(=O)[C@@H]1C[C@@H](Oc2nccc3cc(OC)ccc23)CN1C(=O)C(Nc1cc(C(F)(F)F)ccn1)C(C)C)C(=O)NS(=O)(=O)C1CC1 (single isomer, unassigned) [Compound 9] | 7.70 to 9.22 |  | 7.00 to 8.52 |
| C=C[C@@H]1C[C@]1(NC(=O)[C@@H]1C[C@@H](Oc2nccc3cc(OC)ccc23)CN1C(=O)C(Nc1cc(C)ccn1)C(C)C)C(=O)NS(=O)(=O)C1CC1 (single isomer, unassigned) [Compound 10] | 7.70 to 9.22 |  | 7.00 to 8.52 |
